Data on eleven molecules can be found in patent US20050282743A1, “Molecular interactions in cells” (Arbor Vita Corporation, priority 2001, published 2005).

What all share (assay): G' assay (10 uM PL peptide), results of TABLE 7 and TABLE 12
Holding throughout (format): binding

The target in experiment [1] is T1, PDZ protein (GST-PDZ fusion) (Homo sapiens, UniProt Q9Y2H9).
T1 construct: made in house; host or cells: E. coli (DH5alpha, BL21 or JM109)
The note with it: PDZ KIAA0973, PDZ Domain 1. In outline: (§1)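 Biotinylated PL peptides at 10 uM (vs 20 uM in G^0 assay) bound to GST-PDZ fusions; PDZ protein at 5 ug/ml unless another concentration listed. Bound peptide read as A450 nm, classified 0–5 (0 = A450 0; 5 = A450 >4 repeated).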

In experiment [2] the target is T2, PDZ protein (GST-PDZ fusion) (Homo sapiens, UniProt Q13424).
T2 construct: made in house; host or cells: E. coli (DH5alpha, BL21 or JM109)
T2 sequence (Q13424 1-505): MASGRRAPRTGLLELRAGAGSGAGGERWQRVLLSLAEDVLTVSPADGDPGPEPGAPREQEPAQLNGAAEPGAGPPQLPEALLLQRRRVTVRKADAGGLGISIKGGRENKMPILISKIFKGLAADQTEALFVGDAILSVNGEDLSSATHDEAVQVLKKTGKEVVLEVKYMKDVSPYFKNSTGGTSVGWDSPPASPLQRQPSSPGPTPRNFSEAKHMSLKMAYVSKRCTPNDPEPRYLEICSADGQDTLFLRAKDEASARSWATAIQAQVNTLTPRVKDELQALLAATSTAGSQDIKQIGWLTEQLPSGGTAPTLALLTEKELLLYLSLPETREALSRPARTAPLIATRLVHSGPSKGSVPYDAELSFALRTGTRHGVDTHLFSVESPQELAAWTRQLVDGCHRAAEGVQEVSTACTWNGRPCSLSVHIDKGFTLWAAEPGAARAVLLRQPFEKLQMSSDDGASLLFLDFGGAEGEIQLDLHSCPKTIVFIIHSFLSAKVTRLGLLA
The note with it: PDZ Synt. 1 alpha, PDZ Domain 1. The essentials:
as §1

Experiment [3] deals with T3, PDZ protein (GST-PDZ fusion) (Homo sapiens, UniProt Q96RT1).
T3 construct: made in house; host or cells: E. coli (DH5alpha, BL21 or JM109)
T3 sequence (Q96RT1 whole entry, the tested form may be a part): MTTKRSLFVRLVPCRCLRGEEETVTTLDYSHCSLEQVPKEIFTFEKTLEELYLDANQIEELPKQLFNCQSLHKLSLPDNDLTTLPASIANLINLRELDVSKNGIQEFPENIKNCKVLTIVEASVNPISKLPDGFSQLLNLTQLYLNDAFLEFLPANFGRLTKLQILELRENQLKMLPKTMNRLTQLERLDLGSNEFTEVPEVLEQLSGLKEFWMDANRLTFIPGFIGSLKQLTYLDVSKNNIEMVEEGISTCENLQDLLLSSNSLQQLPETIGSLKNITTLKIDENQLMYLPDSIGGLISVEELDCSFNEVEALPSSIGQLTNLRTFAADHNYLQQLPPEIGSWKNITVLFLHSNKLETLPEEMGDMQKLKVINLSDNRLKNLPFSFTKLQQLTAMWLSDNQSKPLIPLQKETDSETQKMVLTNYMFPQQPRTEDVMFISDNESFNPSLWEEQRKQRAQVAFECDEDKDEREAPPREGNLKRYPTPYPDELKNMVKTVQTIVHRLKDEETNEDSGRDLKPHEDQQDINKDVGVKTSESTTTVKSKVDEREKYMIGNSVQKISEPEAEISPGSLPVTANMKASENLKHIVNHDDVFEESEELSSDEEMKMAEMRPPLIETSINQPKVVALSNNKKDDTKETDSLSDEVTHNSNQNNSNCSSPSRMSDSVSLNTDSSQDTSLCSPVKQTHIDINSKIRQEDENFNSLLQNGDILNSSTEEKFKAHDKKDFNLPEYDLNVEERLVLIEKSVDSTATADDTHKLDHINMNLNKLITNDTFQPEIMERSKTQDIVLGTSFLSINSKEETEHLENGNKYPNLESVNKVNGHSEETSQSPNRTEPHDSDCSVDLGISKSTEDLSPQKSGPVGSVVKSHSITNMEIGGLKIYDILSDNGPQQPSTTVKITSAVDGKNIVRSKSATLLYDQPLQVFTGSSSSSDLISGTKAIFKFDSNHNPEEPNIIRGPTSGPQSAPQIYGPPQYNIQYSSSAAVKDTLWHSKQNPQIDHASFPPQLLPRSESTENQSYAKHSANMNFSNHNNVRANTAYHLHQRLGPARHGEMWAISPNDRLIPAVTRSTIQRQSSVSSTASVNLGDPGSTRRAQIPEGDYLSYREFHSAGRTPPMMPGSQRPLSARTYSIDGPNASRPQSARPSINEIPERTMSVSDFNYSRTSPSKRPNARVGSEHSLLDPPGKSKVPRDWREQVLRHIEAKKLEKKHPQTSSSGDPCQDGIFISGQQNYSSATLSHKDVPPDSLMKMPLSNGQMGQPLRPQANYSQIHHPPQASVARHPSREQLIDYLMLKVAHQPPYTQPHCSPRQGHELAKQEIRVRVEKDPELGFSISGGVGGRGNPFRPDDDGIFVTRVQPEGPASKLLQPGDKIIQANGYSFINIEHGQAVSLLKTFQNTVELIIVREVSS
The note with it: PDZ Erbin, PDZ Domain 1. In outline: as §1

Experiment [4] deals with T4, PDZ protein (GST-PDZ fusion) (Homo sapiens, UniProt Q96JY6).
T4 construct: made in house; host or cells: E. coli (DH5alpha, BL21 or JM109)
T4 sequence (Q96JY6 1-352): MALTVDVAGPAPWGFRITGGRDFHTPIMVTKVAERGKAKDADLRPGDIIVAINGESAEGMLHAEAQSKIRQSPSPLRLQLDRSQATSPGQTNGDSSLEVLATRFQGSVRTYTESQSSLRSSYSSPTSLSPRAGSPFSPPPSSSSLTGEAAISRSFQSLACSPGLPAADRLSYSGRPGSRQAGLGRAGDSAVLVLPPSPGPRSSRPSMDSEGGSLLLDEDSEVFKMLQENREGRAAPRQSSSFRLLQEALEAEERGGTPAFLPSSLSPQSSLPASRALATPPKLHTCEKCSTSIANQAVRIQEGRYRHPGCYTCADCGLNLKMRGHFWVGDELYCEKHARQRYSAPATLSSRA
The note with it: PDZ LIM-Mystique, PDZ Domain 1. In outline:
as §1

The target in experiment [5] is T5, PDZ protein (GST-PDZ fusion) (Homo sapiens, UniProt Q8TEW0).
T5 construct: made in house; host or cells: E. coli (DH5alpha, BL21 or JM109)
T5 sequence (Q8TEW0 whole entry, the tested form may be a part): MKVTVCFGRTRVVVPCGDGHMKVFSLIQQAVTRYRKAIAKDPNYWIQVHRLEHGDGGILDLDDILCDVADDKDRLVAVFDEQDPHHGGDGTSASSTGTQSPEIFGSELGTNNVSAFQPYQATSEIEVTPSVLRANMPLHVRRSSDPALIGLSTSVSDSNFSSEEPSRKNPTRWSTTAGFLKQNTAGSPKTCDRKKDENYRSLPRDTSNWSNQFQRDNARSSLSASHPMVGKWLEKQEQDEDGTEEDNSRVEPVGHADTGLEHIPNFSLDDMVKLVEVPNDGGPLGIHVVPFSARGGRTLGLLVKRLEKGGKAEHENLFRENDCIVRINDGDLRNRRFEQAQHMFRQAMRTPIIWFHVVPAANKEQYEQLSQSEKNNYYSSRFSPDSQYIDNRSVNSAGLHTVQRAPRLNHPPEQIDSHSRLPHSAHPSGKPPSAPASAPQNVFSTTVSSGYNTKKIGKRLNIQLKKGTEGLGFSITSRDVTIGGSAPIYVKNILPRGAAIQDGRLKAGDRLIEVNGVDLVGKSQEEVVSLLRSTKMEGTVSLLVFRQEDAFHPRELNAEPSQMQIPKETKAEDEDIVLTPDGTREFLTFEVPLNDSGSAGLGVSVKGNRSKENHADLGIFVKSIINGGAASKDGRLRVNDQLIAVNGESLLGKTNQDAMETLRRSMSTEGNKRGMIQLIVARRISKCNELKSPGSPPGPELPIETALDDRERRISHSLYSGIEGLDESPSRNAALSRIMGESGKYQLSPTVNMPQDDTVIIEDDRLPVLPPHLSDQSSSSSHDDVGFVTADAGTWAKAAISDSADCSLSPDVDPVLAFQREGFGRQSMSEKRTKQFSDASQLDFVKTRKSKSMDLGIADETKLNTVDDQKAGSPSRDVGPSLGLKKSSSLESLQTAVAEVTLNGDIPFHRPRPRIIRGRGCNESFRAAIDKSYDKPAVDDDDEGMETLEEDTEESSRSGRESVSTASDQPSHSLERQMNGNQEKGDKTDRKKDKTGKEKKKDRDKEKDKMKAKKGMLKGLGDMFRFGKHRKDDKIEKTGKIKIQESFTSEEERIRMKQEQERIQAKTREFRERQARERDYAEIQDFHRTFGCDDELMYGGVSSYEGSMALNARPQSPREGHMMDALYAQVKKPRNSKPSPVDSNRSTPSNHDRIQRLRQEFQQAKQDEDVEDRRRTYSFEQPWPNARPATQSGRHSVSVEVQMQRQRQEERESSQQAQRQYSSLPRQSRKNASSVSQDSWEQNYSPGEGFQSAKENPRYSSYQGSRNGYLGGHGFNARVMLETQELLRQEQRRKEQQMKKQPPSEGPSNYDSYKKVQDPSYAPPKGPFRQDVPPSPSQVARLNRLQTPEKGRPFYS
To be noted: PDZ PAR3, PDZ Domain 3. In outline:
as §1

In experiment [6] the target is T6, PDZ protein (GST-PDZ fusion) (Homo sapiens, UniProt Q07157).
T6 construct: made in house; host or cells: E. coli (DH5alpha, BL21 or JM109)
T6 sequence (Q07157 whole entry, the tested form may be a part): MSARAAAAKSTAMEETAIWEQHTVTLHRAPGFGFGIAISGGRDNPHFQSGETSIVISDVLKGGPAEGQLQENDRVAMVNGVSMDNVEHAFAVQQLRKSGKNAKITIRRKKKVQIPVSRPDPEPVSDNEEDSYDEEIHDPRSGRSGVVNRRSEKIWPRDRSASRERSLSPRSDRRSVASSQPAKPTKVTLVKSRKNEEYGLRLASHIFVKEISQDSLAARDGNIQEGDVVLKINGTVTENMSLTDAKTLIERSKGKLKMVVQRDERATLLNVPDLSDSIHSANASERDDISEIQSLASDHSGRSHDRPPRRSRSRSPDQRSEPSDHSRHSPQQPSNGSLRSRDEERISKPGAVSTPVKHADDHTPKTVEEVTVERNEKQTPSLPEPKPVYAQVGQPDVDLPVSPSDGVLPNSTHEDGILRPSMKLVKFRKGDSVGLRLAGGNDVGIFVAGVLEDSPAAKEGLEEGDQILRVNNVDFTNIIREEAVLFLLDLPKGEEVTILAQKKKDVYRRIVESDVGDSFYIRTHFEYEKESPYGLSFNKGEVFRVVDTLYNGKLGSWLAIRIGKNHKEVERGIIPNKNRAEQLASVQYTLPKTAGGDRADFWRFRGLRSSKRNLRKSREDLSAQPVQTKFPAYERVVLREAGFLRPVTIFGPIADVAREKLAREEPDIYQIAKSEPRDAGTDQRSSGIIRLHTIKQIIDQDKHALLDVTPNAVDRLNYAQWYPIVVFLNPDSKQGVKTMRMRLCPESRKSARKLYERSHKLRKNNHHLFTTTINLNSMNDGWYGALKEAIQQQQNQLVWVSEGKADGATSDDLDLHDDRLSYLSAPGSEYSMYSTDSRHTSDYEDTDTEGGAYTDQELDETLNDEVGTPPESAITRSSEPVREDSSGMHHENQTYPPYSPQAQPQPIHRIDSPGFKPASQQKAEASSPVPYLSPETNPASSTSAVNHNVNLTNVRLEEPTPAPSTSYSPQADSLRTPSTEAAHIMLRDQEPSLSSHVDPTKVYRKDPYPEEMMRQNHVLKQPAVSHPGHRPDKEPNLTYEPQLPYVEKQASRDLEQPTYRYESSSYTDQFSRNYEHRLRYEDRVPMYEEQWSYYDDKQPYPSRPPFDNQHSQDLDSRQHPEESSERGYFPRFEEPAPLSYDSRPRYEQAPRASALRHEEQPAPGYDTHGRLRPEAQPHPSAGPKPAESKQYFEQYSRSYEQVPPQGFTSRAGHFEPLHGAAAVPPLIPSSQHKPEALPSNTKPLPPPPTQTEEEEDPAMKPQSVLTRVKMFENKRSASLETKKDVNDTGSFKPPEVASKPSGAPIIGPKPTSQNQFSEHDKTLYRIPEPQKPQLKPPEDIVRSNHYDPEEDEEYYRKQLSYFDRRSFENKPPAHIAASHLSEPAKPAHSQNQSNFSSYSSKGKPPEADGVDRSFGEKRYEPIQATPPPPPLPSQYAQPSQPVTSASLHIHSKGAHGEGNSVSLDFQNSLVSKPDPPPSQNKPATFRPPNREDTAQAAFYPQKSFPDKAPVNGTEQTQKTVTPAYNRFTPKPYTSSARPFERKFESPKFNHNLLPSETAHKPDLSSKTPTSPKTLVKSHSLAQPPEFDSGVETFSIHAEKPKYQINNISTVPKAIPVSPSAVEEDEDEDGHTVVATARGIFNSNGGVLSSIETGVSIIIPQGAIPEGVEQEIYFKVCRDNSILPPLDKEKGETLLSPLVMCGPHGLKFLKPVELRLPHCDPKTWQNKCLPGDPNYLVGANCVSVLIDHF
The essentials: as §1

Ends that are not written are not given here. Peptide text beside a SMILES is read from it. * marks the point of attachment. Biotin = O=C1N[C@H]2[C@H](CS[C@H]2CCCCC(=O)*)N1

In the case of `CC(C)C[C@H](NC(=O)[C@H](CCCNC(=N)N)NC(=O)CNC(=O)CNC(=O)[C@H](CCCNC(=N)N)NC(=O)[C@H](C)NC(=O)[C@@H]1CCCN1C(=O)[C@H](CCCNC(=N)N)NC(=O)CNC(=O)CNC(=O)[C@@H](NC(=O)[C@H](C)NC(=O)CCCC[C@@H]1SC[C@@H]2NC(=O)N[C@@H]21)C(C)C)C(=O)N[C@@H](CCC(N)=O)C(=O)NCC(=O)N[C@@H](CCCNC(=N)N)C(=O)N[C@@H](CCCNC(=N)N)C(=O)N[C@@H](CCC(N)=O)C(=O)N[C@H](C(=O)N[C@@H](CCC(N)=O)C(=O)N[C@H](C(=O)O)C(C)C)[C@@H](C)O` [HPV E6 58 (modified)] (Biotin-AVGGRPARGGRLQGRRQTQV-OH; C-terminus assumed), the Classification in experiment [1] and in experiment [2] was 2 (A450 nm 1-2) each time.

In the case of `CC(C)C[C@H](NC(=O)[C@H](CC(=O)O)NC(=O)[C@H](CO)NC(=O)[C@H](CCC(=O)O)NC(=O)CNC(=O)[C@H](Cc1ccc(O)cc1)NC(=O)[C@H](CC(C)C)NC(=O)[C@H](C)NC(=O)[C@H](CO)NC(=O)[C@H](CO)NC(=O)[C@H](Cc1ccccc1)NC(=O)[C@H](C)NC(=O)[C@H](C)NC(=O)[C@H](Cc1ccc(O)cc1)NC(=O)[C@H](CC(=O)O)NC(=O)[C@H](CC(C)C)NC(=O)[C@H](C)NC(=O)CNC(=O)[C@@H]1CCCN1C(=O)[C@@H](NC(=O)CCCC[C@@H]1SC[C@@H]2NC(=O)N[C@@H]21)C(C)C)C(=O)O` [a-actinin 2] (Biotin-VPGALDYAAFSSALYGESDL-OH; C-terminus assumed), the Classification in experiment [3] is given as 1 (A450 nm 0-1); in experiment [4], 5 (A450 nm of 4 more than 2× repeated); in experiment [5], 1 (A450 nm 0-1); in experiment [1], 2 (A450 nm 1-2); in experiment [2], 3 (A450 nm 2-3).

With `CSCC[C@H](NC(=O)[C@H](C)NC(=O)[C@H](CCCNC(=N)N)NC(=O)CNC(=O)[C@@H](NC(=O)[C@H](Cc1c[nH]c2ccccc12)NC(=O)[C@H](CCCNC(=N)N)NC(=O)CNC(=O)CCCC[C@@H]1SC[C@@H]2NC(=O)N[C@@H]21)[C@@H](C)O)C(=O)N[C@@H](CO)C(=O)N[C@@H](C)C(=O)N[C@@H](Cc1c[nH]c2ccccc12)C(=O)N[C@@H](CCCCN)C(=O)N1CCC[C@H]1C(=O)N[C@H](C(=O)N[C@@H](CCCNC(=N)N)C(=O)N[C@@H](CCCNC(=N)N)C(=O)N[C@@H](CCC(=O)O)C(=O)N[C@H](C(=O)N[C@@H](CCC(=O)O)C(=O)N[C@H](C(=O)O)C(C)C)[C@@H](C)O)[C@@H](C)O` [HPV E6 #35 (modified)] (Biotin-GRWTGRAMSAWKPTRRETEV-OH; C-terminus assumed), the Classification in experiment [6] (PDZ ZO-1, PDZ Domain 1) was 1 (A450 nm 0-1); in experiment [3] it was 2 (A450 nm 1-2); in experiment [4], 1 (A450 nm 0-1); in experiment [1] it was 2 (A450 nm 1-2); in experiment [2], 5 (A450 nm of 4 more than 2× repeated).

In the case of “ARHRVTSYTSSSVNVSSNL (Biotin-ARHRVTSYTSSSVNVSSNL) [IL-8RB]”, the Classification in experiment [2] was 1 (A450 nm 0-1).

As to `CC[C@H](C)[C@H](NC(=O)[C@H](Cc1c[nH]cn1)NC(=O)[C@H](C)NC(=O)[C@H](C)NC(=O)[C@H](CO)NC(=O)[C@@H]1CCCN1C(=O)[C@H](CCCNC(=N)N)NC(=O)[C@H](CC(=O)O)NC(=O)[C@H](CCCCN)NC(=O)[C@@H]1CCCN1C(=O)[C@H](CC(=O)O)NC(=O)[C@H](CCC(=O)O)NC(=O)CCCC[C@@H]1SC[C@@H]2NC(=O)N[C@@H]21)C(=O)N[C@H](C(=O)N[C@@H](CCC(=O)O)C(=O)N[C@@H](C)C(=O)N[C@@H](CC(C)C)C(=O)N[C@@H](CCC(=O)O)C(=O)N[C@H](C(=O)N[C@@H](CC(=O)O)C(=O)N[C@H](C(=O)O)C(C)C)[C@@H](C)O)C(C)C` [PDZ-binding kinase (PBK)] (Biotin-EDPKDRPSAAHIVEALETDV-OH; C-terminus assumed), the Classification in experiment [2] is 1 (A450 nm 0-1).

As for `CC(C)C[C@H](NC(=O)[C@H](C)NC(=O)[C@@H](NC(=O)[C@H](CCC(=O)O)NC(=O)[C@H](CCCNC(=N)N)NC(=O)[C@H](CCCNC(=N)N)NC(=O)CNC(=O)[C@H](CCC(N)=O)NC(=O)[C@H](CC(C)C)NC(=O)[C@H](CCCNC(=N)N)NC(=O)CNC(=O)CNC(=O)[C@H](CCCNC(=N)N)NC(=O)[C@H](C)NC(=O)[C@H](CO)NC(=O)[C@H](CCCNC(=N)N)NC(=O)CNC(=O)CNC(=O)[C@H](C)NC(=O)[C@H](C)NC(=O)CCCC[C@@H]1SC[C@@H]2NC(=O)N[C@@H]21)[C@@H](C)O)C(=O)O` [HPV E6 33 (modified)] (Biotin-AAGGRSARGGRLQGRRETAL-OH; C-terminus assumed), the Classification in experiment [2] is 3 (A450 nm 2-3).

On to `CC(C)C[C@H](NC(=O)[C@H](C)NC(=O)[C@H](CO)NC(=O)CNC(=O)[C@@H](NC(=O)CCCC[C@@H]1SC[C@@H]2NC(=O)N[C@@H]21)[C@@H](C)O)C(=O)N[C@@H](CCC(N)=O)C(=O)N[C@@H](C)C(=O)N[C@@H](Cc1c[nH]c2ccccc12)C(=O)N[C@@H](CCCNC(=N)N)C(=O)N[C@@H](Cc1c[nH]cn1)C(=O)N[C@H](C(=O)N[C@@H](CO)C(=O)N[C@@H](CCCNC(=N)N)C(=O)N[C@@H](CCC(N)=O)C(=O)N[C@@H](C)C(=O)N[C@H](C(=O)N[C@@H](CCC(=O)O)C(=O)N[C@@H](CO)C(=O)N[C@H](C(=O)N[C@H](C(=O)O)C(C)C)[C@@H](C)O)[C@@H](C)O)[C@@H](C)O` [HPV E6 #66 (modified)] (Biotin-TGSALQAWRHTSRQATESTV-OH; C-terminus assumed), for which the Classification is 1 (A450 nm 0-1) in experiment [3] and 2 (A450 nm 1-2) in experiment [2].

Take “PYSELNYETSHYPASPDSWV (Biotin-PYSELNYETSHYPASPDSWV) [catenin - delta 2]”: the Classification in experiment [3] is listed as 4 (A450 nm 3-4); in experiment [4], 5 (A450 nm of 4 more than 2× repeated); in experiment [5], 1 (A450 nm 0-1).

In the case of TQGFPGPATWRRISSLESEV, the Classification in experiment [3] was 4 (A450 nm 3-4); in experiment [4] it was 4 (A450 nm 3-4); in experiment [1], 1 (A450 nm 0-1); in experiment [2], 4 (A450 nm 3-4).

For the molecule `CC[C@H](C)[C@H](NC(=O)[C@H](CCC(N)=O)NC(=O)CCCC[C@@H]1SC[C@@H]2NC(=O)N[C@@H]21)C(=O)N[C@@H](CO)C(=O)N1CCC[C@H]1C(=O)NCC(=O)NCC(=O)N[C@@H](CC(C)C)C(=O)N[C@@H](CCC(=O)O)C(=O)N1CCC[C@H]1C(=O)N1CCC[C@H]1C(=O)N[C@@H](CO)C(=O)N[C@@H](CCC(=O)O)C(=O)N[C@@H](CCCCN)C(=O)N[C@@H](Cc1c[nH]cn1)C(=O)N[C@@H](Cc1ccccc1)C(=O)N[C@@H](CCCNC(=N)N)C(=O)N[C@@H](CCC(=O)O)C(=O)N[C@H](C(=O)N[C@@H](CCC(=O)O)C(=O)N[C@H](C(=O)O)C(C)C)[C@@H](C)O` [Tax], the Classification in experiment [3] is reported as 5 (A450 nm of 4 more than 2× repeated); in experiment [4], 1 (A450 nm 0-1).

On to “ELLQFCRTPNPALKNGQYWV (Biotin-ELLQFCRTPNPALKNGQYWV)”, for which the Classification in experiment [6] (PDZ ZO-1, PDZ Domain 1) is given as 5 (A450 nm of 4 more than 2× repeated); in experiment [6] (PDZ ZO-1, PDZ Domain 2) it was 4 (A450 nm 3-4); in experiment [3] it was 3 (A450 nm 2-3); in experiment [4], 2 (A450 nm 1-2); in experiment [5], 3 (A450 nm 2-3).
